Assay results published in patent US20260365670A1, “EGFR INHIBITORS AND USES THEREOF” (DIZAL (JIANGSU) PHARMACEUTICAL CO., LTD., priority 2022, published 2026).
Where two headings read alike, the source gives them in different places.

How the values were obtained:
[1] = target: T1, EGFR[T790M/C797S/L858R] (Homo sapiens, UniProt P00533, C797S/L858R/T790M); assay: Inhibition of EGFR[T790M/C797S/L858R] biochemical enzymatic activity (HTRF); conditions: EGFR T790M-C797S-L858R, 1 mM ATP, 1 h, room temperature, read-out: IC50 (nM) @T790M- C797S - L858R
T1 construct: purchased Carna Bio
Procedure: (§1) Biological Example 1: Inhibition of EGFR WT and Mutant Biochemical Enzymatic Activity
(§2) The inhibition potency of compounds against these enzymes was assessed using Homogenous Time Resolved Fluorescence approach (HTRF, CisBio. Cat No. 62TKOPEJ).
(§3) Inhibitory effects of the compounds were determined by measuring the enzymatic activity of EGFR enzyme phosphorylates 1 μM TK Substrate-biotin in the presence of 1 mM adenosine-5′-triphosphate (ATP) and varying concentrations of the test compound. The enzyme reaction buffer contains 5 mM MgCl2, 1 mM MnC12, 0.01% CHAPS, 1 mM dithiothreitol (DTT), 0.5% dimethylsulfoxide (DMSO), and 1× supplemented enzymatic buffer. The WT and mutant EGFR enzymes (SignalChem) were added to plates containing inhibitors, followed by activation of the kinase reaction by addition of ATP and peptide substrates. After incubation for 1 h at room temperature, the reaction was stopped by the addition of the detection reagent mix containing EDTA. The fluorescence was measured at 615 nm and 665 nm, respectively with excitation wavelength at 320 nm. The calculated signal ratio of 665 nm/615 nm is proportional to the kinase activity. The concentration of compound producing 50% inhibition of the respective kinase (IC50) was calculated using four-parameter logistic fit with XL-FIT.

[2] = target: T2, EGFR L858R (Homo sapiens, UniProt P00533, L858R); assay: Inhibition of EGFR L858R biochemical enzymatic activity (HTRF); conditions: 1 mM ATP, 1 h, room temperature, read-out: IC50 (nM) @L858R
T2 construct: purchased Carna Bio
Procedure: as §1, §2, §3

[3] = target: T3, EGFR (C797S L858R) (Homo sapiens, UniProt P00533, C797S/L858R); assay: Inhibition of EGFR (C797S L858R) biochemical enzymatic activity (HTRF); conditions: EGFR L858-C797S, 1 mM ATP, 1 h, room temperature, read-out: IC50 (nM) @L858-C797S
T3 construct: purchased signalchem
Procedure: as §1, §2, §3

[4] = target: T4, EGFR Exon19Del/T790M (Homo sapiens, UniProt P00533, DEL746-750/T790M); assay: Inhibition of EGFR Exon19Del/T790M biochemical enzymatic activity (HTRF); conditions: EGFR Del19-T790M, 1 mM ATP, 1 h, room temperature, read-out: IC50 (nM) @Del19-T790M
T4 construct: purchased Carna Bio
Procedure: as §1, §2, §3

[5] = target: T5, EGFR (d746-750 C797S) (Homo sapiens, UniProt P00533, C797S/DEL746-750); assay: Inhibition of EGFR (d746-750 C797S) biochemical enzymatic activity (HTRF); conditions: EGFR Del19-C797S, 1 mM ATP, 1 h, room temperature, read-out: IC50 (nM) @Del19-C797S
T5 construct: purchased signalchem
Procedure: as §1, §2, §3

[6] = tested on: PC-9; assay: Cell proliferation assay, PC-9 cells (CellTiter-Glo, 72 hours); type: cell-based; conditions: PC9 cells, CellTiter-Glo, read-out: PC9 GI50
Procedure: (§4) Biological Example 2: Cell Proliferation Assays
(§5) Ba/F3 cells expressing EGFR mutations were seeded in 384-well plates at 5000 cells/well in RPMI1640 medium containing […]. PC-9 at 500 cells/well was seeded into 384-well plates in RPMI1640 medium with 10% FBS. After overnight incubation, the assay plates were dosed with compounds at a series of concentrations. Alongside dosing the assay plates, the day 0 plate was processed using CellTiter-Glo® Luminescent Cell Viability Assay (Promega) to measure the number of viable cells (G0). The assay plates were further incubated for 72 hours and the number of viable cells (G3) was measured. The percentage of proliferation was calculated as: […]=100×(G3 value of sample well−G0 value)/(G3 value of DMSO control−G0 value). The concentration of compound producing 50% proliferation inhibition (GI50) was further calculated in best-fit curves using XLFit software. N/A=not available.

[7] = target: T6, EGFR L858R/T790M (Homo sapiens, UniProt P00533, L858R/T790M); assay: Inhibition of EGFR L858R/T790M biochemical enzymatic activity (HTRF); conditions: EGFR L858R-T790M, 1 mM ATP, 1 h, room temperature, read-out: IC50 (nM) @L858R-T790M
T6 construct: purchased Carna Bio
Procedure: as §1, §2, §3

[8] = tested on: Ba/F3 cells expressing EGFR mutations; assay: Cell proliferation assay, Ba/F3 cells expressing EGFR mutations (CellTiter-Glo, 72 hours); type: cell-based; conditions: CellTiter-Glo
Procedure: as §4, §5

[9] = target: T7, EGFR[T790M/C797S/d746-750] (Homo sapiens, UniProt P00533, C797S/DEL746-750/T790M); assay: Inhibition of EGFR[T790M/C797S/d746-750] biochemical enzymatic activity (HTRF); conditions: EGFR T790M-C797S-Del19, 1 mM ATP, 1 h, room temperature, read-out: IC50 (nM) @T790M - C797S - Del19
T7 construct: purchased Carna Bio
Procedure: as §1, §2, §3

[10] = target: T8, EGFR Exon19Del (Homo sapiens, UniProt P00533, DEL746-750); assay: Inhibition of EGFR Exon19Del biochemical enzymatic activity (HTRF); conditions: EGFR Del19, 1 mM ATP, 1 h, room temperature, read-out: IC50 @Del19
T8 construct: purchased Carna Bio
Procedure: as §1, §2, §3

[11] = target: T9, EGFR wild type (Homo sapiens, UniProt P00533); assay: Inhibition of EGFR wild type biochemical enzymatic activity (HTRF); conditions: EGFR WT, 1 mM ATP, 1 h, room temperature, read-out: IC50 (nM) @WT
T9 construct: purchased Carna Bio
Procedure: as §1, §2, §3

[12] = BaF3 cells, EGFR DEL19-C797S, read-out: DEL19-C797S/BaF3 GI50
[13] = BaF3 cells, EGFR DEL19-T790-C797S, read-out: DEL19-T790-C797S/BaF3 GI50
[14] = BaF3 cells, EGFR L858R, read-out: L858R/BaF3 GI50
[15] = BaF3 cells, EGFR L858R-C797S, read-out: L858R-C797S/BaF3 GI50
[16] = BaF3 cells, EGFR L858R-T790-C797S, read-out: L858R-T790-C797S/BaF3 GI50
[17] = BaF3 cells, EGFR L858R-T790M, read-out: L858R-T790M/BaF3 GI50
[18] = EGFR DEL19-T790M, read-out: DEL19-T790M GI50

T5 sequence (P00533 with tags, fused parts or gaps DEL746-750/C797S limits assumed): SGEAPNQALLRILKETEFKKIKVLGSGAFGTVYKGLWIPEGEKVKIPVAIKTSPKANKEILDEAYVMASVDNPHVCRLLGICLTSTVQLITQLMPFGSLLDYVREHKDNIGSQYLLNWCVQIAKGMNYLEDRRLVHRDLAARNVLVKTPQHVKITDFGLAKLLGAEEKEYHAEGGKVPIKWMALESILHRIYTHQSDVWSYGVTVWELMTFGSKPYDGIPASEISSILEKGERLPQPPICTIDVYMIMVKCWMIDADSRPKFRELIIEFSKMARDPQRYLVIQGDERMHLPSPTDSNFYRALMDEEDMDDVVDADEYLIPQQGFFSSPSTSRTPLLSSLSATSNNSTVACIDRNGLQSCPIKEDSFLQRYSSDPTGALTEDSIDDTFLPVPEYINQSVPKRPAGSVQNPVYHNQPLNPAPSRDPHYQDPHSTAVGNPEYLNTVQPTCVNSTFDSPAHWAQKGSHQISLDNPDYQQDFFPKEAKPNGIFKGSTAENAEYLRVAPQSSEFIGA
T4 sequence (P00533 with tags, fused parts or gaps DEL746-750/T790M limits assumed): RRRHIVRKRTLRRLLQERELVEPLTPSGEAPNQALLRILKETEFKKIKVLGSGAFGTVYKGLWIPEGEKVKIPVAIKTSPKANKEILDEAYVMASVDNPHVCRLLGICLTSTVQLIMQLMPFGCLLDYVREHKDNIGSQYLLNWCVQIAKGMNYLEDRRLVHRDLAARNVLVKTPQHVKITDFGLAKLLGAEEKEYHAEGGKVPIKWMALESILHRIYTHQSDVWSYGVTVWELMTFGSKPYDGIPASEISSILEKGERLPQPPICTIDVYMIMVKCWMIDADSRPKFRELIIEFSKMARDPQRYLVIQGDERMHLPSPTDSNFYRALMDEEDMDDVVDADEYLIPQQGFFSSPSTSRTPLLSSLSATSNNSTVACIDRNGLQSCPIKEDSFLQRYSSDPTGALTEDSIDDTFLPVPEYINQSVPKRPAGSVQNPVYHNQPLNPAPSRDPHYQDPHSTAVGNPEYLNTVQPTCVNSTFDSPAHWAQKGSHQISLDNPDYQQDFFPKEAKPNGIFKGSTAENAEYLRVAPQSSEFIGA
T2 sequence (P00533 25-1210 L858R): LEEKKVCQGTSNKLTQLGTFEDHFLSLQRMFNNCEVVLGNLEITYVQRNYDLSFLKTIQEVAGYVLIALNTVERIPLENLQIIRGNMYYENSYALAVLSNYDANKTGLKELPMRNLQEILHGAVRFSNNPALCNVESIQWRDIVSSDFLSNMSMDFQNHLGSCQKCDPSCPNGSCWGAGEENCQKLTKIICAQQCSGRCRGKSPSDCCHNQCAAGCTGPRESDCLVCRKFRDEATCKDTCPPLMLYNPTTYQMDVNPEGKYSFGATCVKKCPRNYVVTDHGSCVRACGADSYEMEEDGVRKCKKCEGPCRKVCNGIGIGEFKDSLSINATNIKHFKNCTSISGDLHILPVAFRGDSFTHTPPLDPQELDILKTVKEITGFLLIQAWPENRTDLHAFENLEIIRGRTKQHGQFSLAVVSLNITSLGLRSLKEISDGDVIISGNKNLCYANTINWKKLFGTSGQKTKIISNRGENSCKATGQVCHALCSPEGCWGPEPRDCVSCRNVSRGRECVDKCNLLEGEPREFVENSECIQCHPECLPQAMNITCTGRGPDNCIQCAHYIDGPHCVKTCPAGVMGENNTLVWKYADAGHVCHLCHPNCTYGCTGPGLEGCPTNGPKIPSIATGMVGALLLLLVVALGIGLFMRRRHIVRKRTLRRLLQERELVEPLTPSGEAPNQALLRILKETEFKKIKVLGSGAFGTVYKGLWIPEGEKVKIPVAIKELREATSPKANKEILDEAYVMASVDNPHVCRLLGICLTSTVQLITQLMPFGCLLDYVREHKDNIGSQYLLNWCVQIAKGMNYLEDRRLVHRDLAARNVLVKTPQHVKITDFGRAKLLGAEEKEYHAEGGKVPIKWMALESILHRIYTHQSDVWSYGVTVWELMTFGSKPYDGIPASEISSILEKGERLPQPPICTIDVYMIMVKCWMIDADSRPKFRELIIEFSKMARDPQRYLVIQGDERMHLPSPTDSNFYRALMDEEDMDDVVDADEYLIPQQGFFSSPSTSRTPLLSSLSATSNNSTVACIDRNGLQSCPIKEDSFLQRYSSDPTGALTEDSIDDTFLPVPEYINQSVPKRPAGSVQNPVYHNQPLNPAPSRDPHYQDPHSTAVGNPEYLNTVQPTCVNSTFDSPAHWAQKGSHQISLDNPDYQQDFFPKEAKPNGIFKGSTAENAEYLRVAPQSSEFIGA
T7 sequence (P00533 with tags, fused parts or gaps DEL746-750/T790M/C797S limits assumed): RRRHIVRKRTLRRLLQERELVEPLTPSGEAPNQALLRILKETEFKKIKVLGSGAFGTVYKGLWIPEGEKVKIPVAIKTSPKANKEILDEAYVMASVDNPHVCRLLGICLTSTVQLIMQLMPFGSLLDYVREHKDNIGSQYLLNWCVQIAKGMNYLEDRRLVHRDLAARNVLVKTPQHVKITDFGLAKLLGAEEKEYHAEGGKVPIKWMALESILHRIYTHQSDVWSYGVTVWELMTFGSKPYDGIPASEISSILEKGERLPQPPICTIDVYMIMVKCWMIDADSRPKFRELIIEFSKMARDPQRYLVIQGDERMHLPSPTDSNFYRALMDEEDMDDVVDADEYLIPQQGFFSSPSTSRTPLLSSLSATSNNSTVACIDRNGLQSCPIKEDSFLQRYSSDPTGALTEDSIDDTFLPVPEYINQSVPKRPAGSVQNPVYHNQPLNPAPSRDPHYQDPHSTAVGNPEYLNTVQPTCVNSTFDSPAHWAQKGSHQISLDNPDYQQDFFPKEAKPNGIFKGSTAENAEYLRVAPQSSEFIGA
T9 sequence (P00533 25-1210): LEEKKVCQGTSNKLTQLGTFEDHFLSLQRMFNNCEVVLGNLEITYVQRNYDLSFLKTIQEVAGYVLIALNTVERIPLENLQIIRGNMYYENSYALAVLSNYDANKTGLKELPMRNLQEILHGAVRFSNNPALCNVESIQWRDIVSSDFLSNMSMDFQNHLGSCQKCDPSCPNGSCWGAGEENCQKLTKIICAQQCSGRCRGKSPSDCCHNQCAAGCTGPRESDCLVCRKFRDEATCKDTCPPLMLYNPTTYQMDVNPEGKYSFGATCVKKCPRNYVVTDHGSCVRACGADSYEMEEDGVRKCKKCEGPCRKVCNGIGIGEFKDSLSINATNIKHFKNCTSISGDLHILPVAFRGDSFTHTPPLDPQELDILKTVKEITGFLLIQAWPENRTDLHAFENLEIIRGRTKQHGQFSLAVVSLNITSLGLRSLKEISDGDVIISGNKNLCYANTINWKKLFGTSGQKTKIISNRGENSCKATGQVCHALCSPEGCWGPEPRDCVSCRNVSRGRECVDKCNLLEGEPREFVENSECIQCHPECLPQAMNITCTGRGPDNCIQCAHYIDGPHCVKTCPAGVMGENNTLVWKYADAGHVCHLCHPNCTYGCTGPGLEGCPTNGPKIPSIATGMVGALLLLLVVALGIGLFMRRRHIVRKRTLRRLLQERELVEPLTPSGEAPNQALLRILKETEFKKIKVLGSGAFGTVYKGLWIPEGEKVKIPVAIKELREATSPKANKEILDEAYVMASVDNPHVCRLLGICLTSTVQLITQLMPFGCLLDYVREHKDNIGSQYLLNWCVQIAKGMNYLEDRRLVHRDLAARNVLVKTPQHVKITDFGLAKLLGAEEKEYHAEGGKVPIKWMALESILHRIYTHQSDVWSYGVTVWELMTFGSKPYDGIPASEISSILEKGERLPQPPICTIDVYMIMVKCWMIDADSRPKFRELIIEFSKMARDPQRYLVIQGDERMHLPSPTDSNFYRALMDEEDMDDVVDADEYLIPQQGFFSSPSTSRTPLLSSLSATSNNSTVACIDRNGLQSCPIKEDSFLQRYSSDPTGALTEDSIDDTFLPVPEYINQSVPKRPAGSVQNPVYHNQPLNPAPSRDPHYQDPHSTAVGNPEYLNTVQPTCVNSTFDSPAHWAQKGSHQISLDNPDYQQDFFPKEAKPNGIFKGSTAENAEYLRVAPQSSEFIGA
T8 sequence (P00533 with tags, fused parts or gaps DEL746-750 limits assumed): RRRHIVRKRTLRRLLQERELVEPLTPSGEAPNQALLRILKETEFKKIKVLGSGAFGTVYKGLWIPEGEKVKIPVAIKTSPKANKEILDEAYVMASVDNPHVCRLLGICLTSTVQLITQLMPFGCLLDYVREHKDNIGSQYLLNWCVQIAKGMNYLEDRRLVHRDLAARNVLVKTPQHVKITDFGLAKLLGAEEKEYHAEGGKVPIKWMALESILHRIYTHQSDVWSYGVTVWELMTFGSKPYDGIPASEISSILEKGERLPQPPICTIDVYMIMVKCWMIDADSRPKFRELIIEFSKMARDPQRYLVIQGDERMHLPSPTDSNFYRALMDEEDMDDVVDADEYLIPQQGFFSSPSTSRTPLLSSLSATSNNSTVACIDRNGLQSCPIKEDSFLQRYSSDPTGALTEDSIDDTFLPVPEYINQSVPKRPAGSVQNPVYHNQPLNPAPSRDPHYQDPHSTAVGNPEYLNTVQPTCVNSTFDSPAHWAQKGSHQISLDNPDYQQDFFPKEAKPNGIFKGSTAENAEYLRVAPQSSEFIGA

CN1CCC2(CC1)CN(c1ccc3nc4n(c3c1)C13CCC(CN(CCOc5c(cnn5C)-c5cc(cn(C)c5=O)C(=O)N4)C1)C3)C2 (single isomer, unassigned) [Example A77A]
IC50 [1]: > 5000 nM
IC50 [2]: 1110 nM
IC50 [3]: > 5000 nM
IC50 [4]: > 5000 nM
IC50 [5]: 464 nM
GI50 [6]: 341 nM
IC50 [7]: > 5000 nM
GI50 [8, 12]: 102 nM
GI50 [8, 13]: 326 nM
GI50 [8, 14]: 320 nM
GI50 [8, 15]: 125 nM
GI50 [8, 16]: 368 nM
GI50 [8, 17]: 375 nM
GI50 [8, 18]: 212 nM
IC50 [9]: > 5000 nM
IC50 [10]: 456 nM
IC50 [11]: > 5000 nM

CN1CCC2CN(c3ccc4nc5n(c4c3)C34CCC(CN(CCOc6c(cnn6C)-c6cc(cn(C)c6=O)C(=O)N5)C3)C4)CC21 (single isomer, unassigned) [Example A79A]
IC50 [1]: > 5000 nM
IC50 [2]: > 5000 nM
IC50 [3]: > 5000 nM
IC50 [4]: > 5000 nM
IC50 [5]: 1580 nM
GI50 [6]: 993 nM
IC50 [7]: > 5000 nM
GI50 [8, 12]: 251 nM
GI50 [8, 13]: 999 nM
GI50 [8, 14]: 990 nM
GI50 [8, 15]: 360 nM
GI50 [8, 16]: 1910 nM
GI50 [8, 17]: 1120 nM
GI50 [8, 18]: 882 nM
IC50 [9]: > 5000 nM
IC50 [10]: 1430 nM
IC50 [11]: > 5000 nM

CN1CCN(C2CCN(c3ccc4nc5n(c4c3)C34CCC(CN(CCOc6c(cnn6C)-c6cc(cn(C)c6=O)C(=O)N5)C3)C4)C2)CC1 (single isomer, unassigned) [Example A80A2, 15,21-Dimethyl-5-[3-(4-methylpiperazin-1-yl)pyrrolidin-1-yl]-23-oxa-2,9,11,15,20,21,26-heptaazaheptacyclo[24.4.1.1^{1,28}.1^{13,17}.0^{2,10}.0^{3,8}.0^{18,22}]tritriaconta-3,5,7,9,13,17(33),18(22),19-octaene-12,16-dione]
IC50 [1]: > 5000 nM
IC50 [2]: > 5000 nM
IC50 [3]: > 5000 nM
IC50 [4]: > 5000 nM
IC50 [5]: 530 nM
GI50 [6]: 381 nM
IC50 [7]: > 5000 nM
GI50 [8, 12]: 57 nM
GI50 [8, 13]: 170 nM
GI50 [8, 14]: 100 nM
GI50 [8, 15]: 125 nM
GI50 [8, 16]: 126 nM
GI50 [8, 17]: 315 nM
GI50 [8, 18]: 136 nM
IC50 [9]: 2190 nM
IC50 [10]: 490 nM
IC50 [11]: > 5000 nM
